The source of these data is ChEMBL document CHEMBL5244209, “Antiplasmodial and antimalarial activities of quinolone derivatives: An overview” (Eur J Med Chem, 2018).

Broadly, the IC50 is the concentration that gives 50% inhibition.

Common to all, as to format: functional, organism-based
The test system of one assay is Plasmodium yoelii yoelii. In words: Antimalarial activity against hepatic stage Plasmodium yoelii yoelii 265 BY for 48 hrs with media renew every 24 hrs.
Assay [1] concerns Plasmodium falciparum. The experiment in a line: Antimalarial activity against blood stage chloroquine-sensitive Plasmodium falciparum NF54-R infected in erythrocytes assessed as reduction in parasite growth preincubated for 72 hrs followed by addition of [3H]Hypoxanthine and measured after 24 hrs by liquid scintillation counting method. The following applies: Erythrocyte.
In assay [2] the test system is Plasmodium falciparum. The experiment in a line: Antimalarial activity against blood stage chloroquine-sensitive Plasmodium falciparum 3D7 infected in erythrocytes assessed as reduction in parasite growth preincubated for 72 hrs followed by addition of [3H]Hypoxanthine and measured after 24 hrs by liquid scintillation counting method. The following applies: 3D7, Erythrocyte.

The subject of assay [3] is Plasmodium falciparum. In words: Antiplasmodial activity against Plasmodium falciparum Dd2 infected in human Erythrocyte measured after 72 hrs by SYBR green fluorescence dye based microplate reader analysis.
For assay [4], the system named is Plasmodium falciparum. The experiment in a line: Antiplasmodial activity against Plasmodium falciparum Tm90-C2B infected in human Erythrocyte measured after 72 hrs by SYBR green fluorescence dye based microplate reader analysis.
Assay [5] deals with Plasmodium falciparum. In words: Antiplasmodial activity against Plasmodium falciparum D6 infected in human Erythrocyte measured after 72 hrs by SYBR green fluorescence dye based microplate reader analysis.
The subject of assay [6] is Plasmodium falciparum. The experiment in a line: Antiplasmodial activity against chloroquine-sensitive Plasmodium falciparum 3D7 infected in human erythrocyte incubated for 72 hrs by SYBR green I staining based fluorescence assay. The following applies: 3D7, Erythrocyte.

Converted amounts (≈) assume the structure as drawn.

Consider `CN1CCN(c2c(F)cc3c(=O)c(C(=O)O)cn(CCF)c3c2F)CC1` [FLEROXACIN], for which the IC50 was > 100 µg/mL with Plasmodium yoelii yoelii, 12.9 µg/mL (≈ 34.9 µM) with Plasmodium falciparum [1] and 34.6 µg/mL (≈ 93.7 µM) in the assay with Plasmodium falciparum [2].

For the molecule `C[C@@H]1CC[C@H]2[C@@H](C)C(=O)O[C@@H]3O[C@@]4(C)CC[C@@H]1[C@]32OO4` [ARTEMISININ], the IC50 in the assay on Plasmodium falciparum [3] was determined as 0.6 nM; in the assay with Plasmodium falciparum [4], 2.1 nM; in the assay with Plasmodium falciparum [5], 0.81 nM.

`CCCCc1c(C)[nH]c2cc(OC)ccc2c1=O`: the IC50 in the assay on Plasmodium falciparum [3] amounted to 29 nM; in the assay on Plasmodium falciparum [4], 92 nM; with Plasmodium falciparum [5], 29 nM.

Turning to `C[C@H]1COc2c(N3CCN(C)CC3)c(F)cc3c(=O)c(C(=O)O)cn1c23.C[C@H]1COc2c(N3CCN(C)CC3)c(F)cc3c(=O)c(C(=O)O)cn1c23.O` [LEVOFLOXACIN], the IC50 in the assay on Plasmodium yoelii yoelii was > 100 µg/mL; in the assay with Plasmodium falciparum [6], > 20000 nM; with Plasmodium falciparum [1], 40.3 µg/mL; in the assay with Plasmodium falciparum [2], 112 µg/mL.

With `CCCCCc1c(C)[nH]c2cc(OC)ccc2c1=O`, the IC50 came to 12 nM in the assay with Plasmodium falciparum [3], 52 nM in the assay with Plasmodium falciparum [4] and 8 nM with Plasmodium falciparum [5].

`C=CC1CC2CCC1CC2[C@H](OC(=O)[C@H](C)NC(=O)C1=CN(CC)C2C=C3OCOC3=CC2C1=O)c1cccc2ccc(OC)cc12` (some centres not stated) displayed an IC50 with Plasmodium falciparum [6] of 29 nM.

For `C=CC1CC2CCC1CC2[C@H](OC(=O)[C@H](C)NC(=O)C1=CN2C3C(=C(N4CCN(C)CC4)C(F)=CC3C1=O)OC[C@@H]2C)c1cccc2ccc(OC)cc12` (some centres not stated), the IC50 with Plasmodium falciparum [6] stood at 33 nM.

Consider `COc1c(N2C[C@@H]3CCCN[C@@H]3C2)c(F)cc2c(=O)c(C(=O)O)cn(C3CC3)c12` [MOXIFLOXACIN], for which the IC50 in the assay on Plasmodium yoelii yoelii was > 100 µg/mL; with Plasmodium falciparum [1] it was 18 µg/mL (≈ 44.8 µM); in the assay with Plasmodium falciparum [2], 44.8 µg/mL (≈ 112 µM).

On to `CCCCCCCc1c(C)[nH]c2cc(O)ccc2c1=O`, for which the IC50 in the assay with Plasmodium falciparum [3] worked out at 805 nM; with Plasmodium falciparum [4], 824 nM; in the assay with Plasmodium falciparum [5] it was 759 nM.

As for `CCn1cc(C(=O)O)c(=O)c2ccc(C)nc21` [NALIDIXIC ACID], the IC50 in the assay with Plasmodium yoelii yoelii was > 100 µg/mL; with Plasmodium falciparum [6], > 20000 nM; in the assay with Plasmodium falciparum [1], 59.1 µg/mL (≈ 254 µM); in the assay on Plasmodium falciparum [2], 117 µg/mL (≈ 502 µM).

Molecule `C=CC1CC2CCC1CC2[C@H](OC(=O)[C@H](Cc1ccccc1)NC(=O)C1=CN(CC)C2C=C3OCOC3=CC2C1=O)c1cccc2ccc(OC)cc12` (some centres not stated) yielded an IC50 in the assay with Plasmodium falciparum [6] of 115 nM.

With `CC1CN(c2cc3c(cc2F)c(=O)c(C(=O)O)cn3-c2ccc(F)cc2F)CCN1` (configuration not stated) [TEMAFLOXACIN], the values for the IC50 in the assay on Plasmodium yoelii yoelii, in the assay on Plasmodium falciparum [1] and in the assay with Plasmodium falciparum [2] were 72.2 µg/mL (≈ 173 µM), 14.1 µg/mL (≈ 33.8 µM) and 34.9 µg/mL (≈ 83.6 µM), respectively.

Consider `CCCCCCCc1c(C)nc2cc(OC)ccc2c1O`, for which the IC50 with Plasmodium falciparum [3] was 3 nM; with Plasmodium falciparum [4], 11 nM; with Plasmodium falciparum [5], 4 nM.

Regarding `NC1CCN(c2c(F)cc3c(=O)c(C(=O)O)cn(C4CC4)c3c2Cl)C1` (configuration not stated) [CLINAFLOXACIN], the IC50 in the assay with Plasmodium yoelii yoelii was 90.2 µg/mL (≈ 247 µM); with Plasmodium falciparum [1] it was 3.3 µg/mL (≈ 9.02 µM); in the assay with Plasmodium falciparum [2] it was 13.7 µg/mL (≈ 37.5 µM).

Take `CN1CCN(c2c(F)cc3c(=O)c(C(=O)O)cn4c3c2OCN4C)CC1` [MARBOFLOXACIN]: the IC50 is > 100 µg/mL with Plasmodium yoelii yoelii, 21.6 µg/mL (≈ 59.6 µM) in the assay on Plasmodium falciparum [1] and 30.8 µg/mL (≈ 85 µM) in the assay with Plasmodium falciparum [2].

With `CCn1cc(C(=O)O)c(=O)c2cnc(N3CCCC3)nc21` [PIROMIDIC ACID], the figures for the IC50 with Plasmodium yoelii yoelii, with Plasmodium falciparum [1] and in the assay with Plasmodium falciparum [2] were 21.6 µg/mL (≈ 74.9 µM), 14.4 µg/mL (≈ 49.9 µM) and 41.4 µg/mL (≈ 144 µM), respectively.

Consider `COc1ccc2c(=O)c(CCCCCCCCCCC(F)(F)F)c(C)[nH]c2c1`, for which the values for the half-inhibitory concentration (IC50) with Plasmodium falciparum [3], with Plasmodium falciparum [4] and in the assay on Plasmodium falciparum [5] were 1 nM, 5 nM and 1 nM, respectively.

As to `Nc1ccc2c(=O)c3ccc(OCCCCCC(F)(F)F)cc3[nH]c2c1`, the IC50 in the assay with Plasmodium falciparum [3] turned out to be 0.02 nM; in the assay with Plasmodium falciparum [4], 78 nM; in the assay on Plasmodium falciparum [5], 0.02 nM.

Regarding `CCCCCCCc1c(C)[nH]c2cc(C#N)ccc2c1=O`, the results for the IC50 with Plasmodium falciparum [3] and with Plasmodium falciparum [5] were 45 nM and 18 nM, respectively.

On to `CN1CCN(c2c(F)cc3c(=O)c(C(=O)O)cn4c3c2SCC4)CC1` [RUFLOXACIN], for which the IC50 with Plasmodium yoelii yoelii came out at 47.8 µg/mL (≈ 132 µM); in the assay with Plasmodium falciparum [1], 30.1 µg/mL (≈ 82.8 µM); in the assay with Plasmodium falciparum [2] it was 81.9 µg/mL (≈ 225 µM).

In the case of `CC1CCc2cc(F)cc3c(=O)c(C(=O)O)cn1c23` (configuration not stated) [FLUMEQUINE], the IC50 in the assay with Plasmodium yoelii yoelii is > 100 µg/mL; with Plasmodium falciparum [1], 14.1 µg/mL (≈ 54 µM); with Plasmodium falciparum [2], 38.3 µg/mL (≈ 147 µM).

`CCn1cc(C(=O)O)c(=O)c2ccc(-c3ccncc3)cc21` [ROSOXACIN]: the IC50 with Plasmodium falciparum [1] was 10.6 µg/mL (≈ 36 µM); with Plasmodium falciparum [2] it was 87.9 µg/mL (≈ 299 µM).

In the case of `CCn1cc(C(=O)O)c(=O)c2cc(F)c(-n3cccc3)cc21` [IRLOXACIN], the IC50 with Plasmodium yoelii yoelii was > 100 µg/mL; with Plasmodium falciparum [1], 10.5 µg/mL (≈ 35 µM); in the assay on Plasmodium falciparum [2], 49.4 µg/mL (≈ 165 µM).

Regarding `COc1c(N2CCNC(C)C2)c(F)cc2c(=O)c(C(=O)O)cn(C3CC3)c12` (configuration not stated) [GATIFLOXACIN], the values for the IC50 with Plasmodium yoelii yoelii, in the assay with Plasmodium falciparum [1] and with Plasmodium falciparum [2] were > 100 µg/mL, 10.9 µg/mL (≈ 29 µM) and 34.8 µg/mL (≈ 92.7 µM), respectively.

For the molecule `CCn1cc(C(=O)O)c(=O)c2cnc(N3CCNCC3)nc21` [PIPEMIDIC ACID], the IC50 with Plasmodium yoelii yoelii was > 100 µg/mL; in the assay on Plasmodium falciparum [1], 10.5 µg/mL (≈ 34.6 µM); with Plasmodium falciparum [2], 40.9 µg/mL (≈ 135 µM).

The molecule `C=CC1CC2CCC1CC2[C@H](OC(=O)CNC(=O)C1=CN(C2CC2)C2C=C(N3CCN(CC)CC3)C(F)=CC2C1=O)c1cccc2ccc(OC)cc12` (some centres not stated) registered an IC50 in the assay on Plasmodium falciparum [6] of 28 nM.

Take `C=CC1CC2CCC1CC2[C@H](OC(=O)[C@@H](NC(=O)C1=CN(CC)C2C=C(C)C=CC2C1=O)C(C)C)c1cccc2ccc(OC)cc12` (some centres not stated): in the assay on Plasmodium falciparum [6], the half-inhibitory concentration (IC50) amounted to 16 nM.

Regarding `O=C1C(O)=C([C@H]2CC[C@H](c3ccc(Cl)cc3)CC2)C(=O)c2ccccc21` [ATOVAQUONE], the figures for the IC50 in the assay with Plasmodium falciparum [3], in the assay with Plasmodium falciparum [4] and with Plasmodium falciparum [5] were 0.5 nM, 5090 nM and 0.3 nM, respectively.

Molecule `C=CC1CC2CCC1CC2[C@H](OC(=O)[C@@H](NC(=O)C1=CN(CC)C2C=C3OCOC3=CC2C1=O)C(C)C)c1cccc2ccc(OC)cc12` (some centres not stated) had an IC50 in the assay on Plasmodium falciparum [6] of 183 nM.

In the assay on Plasmodium falciparum [6], `C=CC1CC2CCC1CC2[C@H](OC(=O)CNC(=O)C1=CN2C3C(=C(N4CCN(C)CC4)C(F)=CC3C1=O)OC[C@@H]2C)c1cccc2ccc(OC)cc12` (some centres not stated) yielded an IC50 of 12 nM.

On to `Cc1c(F)c(N2CCNC(C)C2)cc2c1c(=O)c(C(=O)O)cn2C1CC1` (configuration not stated) [GREPAFLOXACIN], for which the IC50 came to 4.4 µg/mL (≈ 12.2 µM) in the assay on Plasmodium yoelii yoelii, 3.1 µg/mL (≈ 8.63 µM) in the assay with Plasmodium falciparum [1] and 4.5 µg/mL (≈ 12.5 µM) in the assay with Plasmodium falciparum [2].

For the molecule `CCn1cc(C(=O)O)c(=O)c2cc3c(cc21)OCO3` [OXOLINIC ACID], the IC50 was > 100 µg/mL in the assay with Plasmodium yoelii yoelii, > 10000 nM in the assay on Plasmodium falciparum [6], 42.2 µg/mL (≈ 162 µM) in the assay with Plasmodium falciparum [1] and 130 µg/mL (≈ 496 µM) in the assay on Plasmodium falciparum [2].

`C=CC1CC2CCC1CC2[C@H](OC(=O)CNC(=O)C1=CN(CC)C2C=C(C)C=CC2C1=O)c1cccc2ccc(OC)cc12` (some centres not stated) yielded an IC50 in the assay on Plasmodium falciparum [6] of 46 nM.

For `C[C@@H]1CN(c2c(F)c(N)c3c(=O)c(C(=O)O)cn(C4CC4)c3c2F)C[C@H](C)N1` [SPARFLOXACIN], the IC50 in the assay with Plasmodium yoelii yoelii came out at 53 µg/mL (≈ 135 µM); in the assay with Plasmodium falciparum [1], 73.9 µg/mL (≈ 188 µM); in the assay with Plasmodium falciparum [2], 143 µg/mL (≈ 364 µM).

For the molecule `C=CC1CC2CCC1CC2[C@H](OC(=O)[C@@H](NC(=O)C1=CN(C2CC2)C2C=C(N3CCN(CC)CC3)C(F)=CC2C1=O)C(C)CC)c1cccc2ccc(OC)cc12` (some centres not stated), in the assay on Plasmodium falciparum [6], the IC50 was found to be 207 nM.

With `C=CC1CC2CCC1CC2[C@H](OC(=O)[C@H](Cc1ccccc1)NC(=O)C1=CN2C3C(=C(N4CCN(C)CC4)C(F)=CC3C1=O)OC[C@@H]2C)c1cccc2ccc(OC)cc12` (some centres not stated), the IC50 with Plasmodium falciparum [6] came out at 48 nM.

As to `CCn1nc(C(=O)O)c(=O)c2cc3c(cc21)OCO3` [CINOXACIN], the IC50 in the assay on Plasmodium yoelii yoelii is 36.3 µg/mL (≈ 138 µM); in the assay with Plasmodium falciparum [1], 28.5 µg/mL (≈ 109 µM); in the assay on Plasmodium falciparum [2], 118 µg/mL (≈ 451 µM).
